Strand notation (5' to 3'): a small letter for the sugar, then the base; units joined by * are phosphorothioate-linked, units joined directly phosphodiester-linked; [ ] holds rarer units or linkages, { } end groups; capitals alone tell only the bases. e = 2'-O-(2-methoxyethyl) (MOE); [5mC] = 5-methylcytosine; d = 2'-deoxy (DNA)

The test system of the series is human Factor 11 mRNA. In words: Antisense inhibition of human Factor 11 in HepG2 cells, lipofectin, 75 nM (Example 1). The following applies: 75 nM antisense oligonucleotide, ~24 h, relative to untreated control cells, gapmers targeted to SEQ ID NO: 1. Format: cell-based. On the procedure: Antisense oligonucleotides targeted to a Factor 11 nucleic acid were tested for their effects on Factor 11 mRNA in vitro. Cultured HepG2 cells at a density of 10,000 cells per well were transfected using lipofectin reagent with 75 nM antisense oligonucleotide. After a treatment period of approximately 24 hours, RNA was isolated from the cells and Factor 11 mRNA levels were measured by quantitative real time PCR. Factor 11 mRNA levels were adjusted according to total RNA content, as measured by RIBOGREEN. Results are presented as percent inhibition of Factor 11, relative to untreated control cells.
The chimeric antisense oligonucleotides in Tables 1 and 2 were designed as 5-10-5 MOE gapmers. The gapmers are 20 nucleotides in length, wherein the central gap segment is comprised of 10 2′-deoxynucleotides and is flanked on both sides (in the 5′ and 3′ directions) by wings comprising 5 nucleotides each. Each nucleotide in the 5′ wing segment and each nucleotide in the 3′ wing segment has a 2′-MOE modification. The internucleoside linkages throughout each gapmer are phosphorothioate (P=S) linkages. All cytidine residues throughout each gapmer are 5-methylcytidines. “Target start site” indicates the 5′-most nucleotide to which the gapmer is targeted. “Target stop site” indicates the 3′-most nucleotide to which the gapmer is targeted. Each gapmer listed in Table 1 is targeted to SEQ TD NO: 1 (GENBANK Accession No. NM_000128.3) and each gapmer listed in Table 2 is targeted to SEQ TD NO: 2 (GENBANK Accession No. NT_022792.17, truncated from 19598000 to 19624000).

For the substance “412187 (antisense eT*eT*e[5mC]*eA*eA*dA*d[5mC]*dA*dA*dG*dT*dG*dA*d[5mC]*dA*eT*eA*e[5mC]*eA*e[5mC]) [compound 412187]”, the “% inhibition” value amounted to 21%.

Regarding “412188 (antisense eT*eG*eA*eG*eA*dG*dA*dA*dT*dT*dG*d[5mC]*dT*dT*dG*e[5mC]*eT*eT*eT*e[5mC]) [compound 412188]”, the “% inhibition” value came to 21%.

As to “412189 (antisense eA*eA*eA*eT*eA*dT*dA*d[5mC]*d[5mC]*dT*dT*dG*dA*dG*dA*eG*eA*eA*eT*eT) [compound 412189]”, the “% inhibition” value was determined as 8%.

As to “412190 (antisense eA*eG*eT*eA*eT*dG*dT*d[5mC]*dA*dG*dA*dA*dA*dT*dA*eT*eA*e[5mC]*e[5mC]*eT) [compound 412190]”, the “% inhibition” value is 24%.

For “412191 (antisense eT*eT*eA*eA*eA*dA*dT*d[5mC]*dT*dT*dA*dG*dT*dA*dT*eG*eT*e[5mC]*eA*eG) [compound 412191]”, the “% inhibition” value is reported as 14%.

With “412192 (antisense e[5mC]*eA*eG*e[5mC]*eA*dT*dA*dT*dT*dT*dG*dT*dG*dA*dA*eA*eG*eT*e[5mC]*eG) [compound 412192]”, the “% inhibition” value came to 44%.

On to “412193 (antisense eT*eG*eT*eG*eT*dA*dG*dG*dA*dA*dA*dT*dG*dG*dT*e[5mC]*eA*e[5mC]*eT*eT) [compound 412193]”, for which the “% inhibition” value turned out to be 38%.

“412194 (antisense eT*eG*e[5mC]*eA*eA*dT*dT*d[5mC]*dT*dT*dA*dA*dT*dA*dA*eG*eG*eG*eT*eG) [compound 412194]”: the “% inhibition” value is reported as 80%.

In the case of “412195 (antisense eA*eA*eA*eT*e[5mC]*dA*dT*d[5mC]*d[5mC]*dT*dG*dA*dA*dA*dA*eG*eA*e[5mC]*e[5mC]*eT) [compound 412195]”, the “% inhibition” value turned out to be 22%.

(Values after patent US20230263822A1, “MODULATION OF FACTOR 11 EXPRESSION” (Ionis Pharmaceuticals, Inc., priority 2008, published 2023).)
